Test results published in patent publication US11858905B1, “Cathepsin L inhibitors” (priority 2023, dated 2024).
Where two headings read alike, the source gives them in different places.

Experiments:
[1] = system: SARS-CoV-2 PsVs; experiment: microbe, parasite or virus in culture; assay type: cell-based; details: for activity at 0.5 µM / activity at 5 µM: Severe acute respiratory syndrome coronavirus 2, Vero C1008, 24 h; for activity at 0.5 µM: read-out: % Infection rate at 500 nM; for activity at 5 µM: read-out: % Infection rate at 5 uM
[2] = target: human CatL (Homo sapiens (Human), UniProt P07711); experiment: Human Cathepsin L (CatL) enzymatic assay; assay type: biochemical
Protocol: Human Cathepsin L (CatL) Enzymatic Assay
60 μL of the compounds were added to 384-well dilution plate. The compound solution was diluted for 1:3 in succession in DMSO for each column for 10 pts. 0.05 μL diluted compound solution was added in each row to 384 assay plates (Corning 4514) using Echo (LABCYTE 655), each column containing 2 replicates. 5 μL working solution of human CatL enzyme (Abcam #ab81780) was added to 384-well assay plate, centrifuge 1000 rpm for 1 min. The mixture was incubated at […] for 15 min, then add 5 μL working solution of CatL substrate (Genscript #C7360HB140_5) to initiate the reaction (CatL: 0.05 nM, Substrate: 500 nM). Incubate at […] for 30 min. Reading Ex370 nm and Em460 nm fluorescence signals with BMG CLARIO Star Plusaucu. Percent inhibition for each compound was calculated and IC50 (half maximal inhibitory concentration) was fitted from non-linear regression by XLfit 5.5.0.

[3] = CatL 0.05 nM, substrate 500 nM, pH 5.5, read-out: Enzymatic inhibition IC50
[4] = summary of Table 2, read-out: IC50 for inhibiting CatL

human CatL, sequence (P07711 whole entry, looked up): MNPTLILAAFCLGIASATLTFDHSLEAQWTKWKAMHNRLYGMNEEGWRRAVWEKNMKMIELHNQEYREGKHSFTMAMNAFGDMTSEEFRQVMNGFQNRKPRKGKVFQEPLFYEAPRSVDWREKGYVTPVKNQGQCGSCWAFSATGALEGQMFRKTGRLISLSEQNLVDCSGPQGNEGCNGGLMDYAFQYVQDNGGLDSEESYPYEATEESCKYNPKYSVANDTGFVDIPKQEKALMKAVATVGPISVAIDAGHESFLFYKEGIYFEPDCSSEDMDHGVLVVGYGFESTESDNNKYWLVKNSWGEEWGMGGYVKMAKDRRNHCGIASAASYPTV

Row | SMILES | activity at 0.5 µM [1] [%] | activity at 5 µM [1] [%] | IC50 [2, 3] [nM] | IC50 [2, 4] [nM] | protection of cells from pseudovirus infection at 500 nM ([1]; 500 nM)
1 | Cc1cc(-c2ccc3nc(C[C@H](NS(=O)(=O)c4cccc(Cl)c4)C(=O)NCC#N)oc3c2)ccn1 [Compound 37, (S)-2-((3-chlorophenyl)sulfonamido)-N-(cyanomethyl)-3-(6-(2-methylpyridin-4-yl)benzo[d]oxazol-2-yl)propanamide] | 96 | 104 | 125 | – | –
2 | N#CC1(NC(=O)[C@H](Cc2nc3cc(C(F)(F)F)ccc3o2)NC(=O)c2cccc(Cl)c2)CC1 [Compound 10, (S)-3-chloro-N-(1-((1-cyanocyclopropyl)amino)-1-oxo-3-(5-(trifluoromethyl)benzo[d]oxazol-2-yl)propan-2-yl)benzamide] | 97 | 96 | 51.5 | – | –
3 | N#Cc1cccc2nc(C[C@H](NC(=O)c3cccc(Cl)c3)C(=O)NC3(C#N)CC3)oc12 [Compound 5, (S)-3-chloro-N-(3-(7-cyanobenzo[d]oxazol-2-yl)-1-((1-cyanocyclopropyl)amino)-1-oxopropan-2-yl)benzamide] | 91 | 81 | 122 | – | –
4 | N#CC1(NC(=O)[C@H](Cc2nc3ccccc3o2)NC(=O)c2cn(C3CC3)nc2C(F)(F)F)CC1 [Compound 18, (S)—N-(3-(benzo[d]oxazol-2-yl)-1-((1-cyanocyclopropyl)amino)-1-oxopropan-2-yl)-1-cyclopropyl-3-(trifluoromethyl)-1H-pyrazole-4-carboxamide] | 92 | 72.6 | 50.7 | – | –
5 | N#CC1(NC(=O)[C@H](Cc2nc3ccccc3o2)NC(=O)c2cn(C3CC3)nc2C(F)F)CC1 [Compound 19, (S)—N-(3-(benzo[d]oxazol-2-yl)-1-((1-cyanocyclopropyl)amino)-1-oxopropan-2-yl)-1-cyclopropyl-3-(difluoromethyl)-1 H-pyrazole-4-carboxamide] | 101 | 77.3 | 44.6 | – | –
6 | CN1CCN(c2ccc3nc(C[C@H](NC(=O)c4cc(C(C)(C)C)nn4C4CC4)C(=O)NC4(C#N)CC4)oc3c2)CC1 [Compound 26, (S)-3-(tert-butyl)-N-(1-((1-cyanocyclopropyl)amino)-3-(6-(4-methylpiperazin-1-yl)benzo[d]oxazol-2-yl)-1-oxopropan-2-yl)-1-cyclopropyl-1 H-pyrazole-5-carboxamide] | 25 | 2.2 | 1.4 | < 10 | –
7 | N#CC1(NC(=O)[C@H](Cc2nc3cc(Cl)ccc3o2)NC(=O)c2cccc(Cl)c2)CC1 [Compound 8, (S)-3-chloro-N-(3-(5-chlorobenzo[d]oxazol-2-yl)-1-((1-cyanocyclopropyl)amino)-1-oxopropan-2-yl)benzamide] | 92 | 69 | 17.4 | – | –
8 | CC(C)(C)c1cc(C(=O)N[C@@H](Cc2nc3cccc(Cl)c3o2)C(=O)NC2(C#N)CC2)n(C2CC2)n1 [Compound 20, (S)-3-(tert-butyl)-N-(3-(7-chlorobenzo[d]oxazol-2-yl)-1-((1-cyanocyclopropyl)amino)-1-oxopropan-2-yl)-1-cyclopropyl-1H-pyrazole-5-carboxamide] | 40 | 6.3 | 4.2 | – | –
9 | N#CC1(NC(=O)[C@H](Cc2nc3c(Br)cccc3o2)NC(=O)c2cccc(Cl)c2)CC1 [Compound 2, (S)—N-(3-(4-bromobenzo[d]oxazol-2-yl)-1-((1-cyanocyclopropyl)amino)-1-oxopropan-2-yl)-3-chlorobenzamide] | 55 | 12 | 7.5 | < 10 | –
10 | N#CC1(NC(=O)[C@H](Cc2nc3ccc(Cl)cc3o2)NC(=O)c2cccc(Cl)c2)CC1 [Compound 9, (S)-3-chloro-N-(3-(6-chlorobenzo[d]oxazol-2-yl)-1-((1-cyanocyclopropyl)amino)-1-oxopropan-2-yl)benzamide] | 97 | 73 | 30.5 | – | –
11 | Cn1nc(C(C)(C)C)cc1C(=O)N[C@@H](Cc1nc2ccccc2o1)C(=O)NC1(C#N)CC1 [Compound 13, (S)—N-(3-(benzo[d]oxazol-2-yl)-1-((1-cyanocyclopropyl)amino)-1-oxopropan-2-yl)-3-(tert-butyl)-1-methyl-1H-pyrazole-5-carboxamide] | 55 | 10 | 3.9 | < 10 | –
12 | Cc1cc(-c2ccc3nc(C[C@H](NC(=O)c4cc(C5(C)CC5)nn4C4CC4)C(=O)NC4(C#N)CC4)oc3c2)ccn1 [Compound 38, (S)—N-(1-((1-cyanocyclopropyl)amino)-3-(6-(2-methylpyridin-4-yl)benzo[d]oxazol-2-yl)-1-oxopropan-2-yl)-1-cyclopropyl-3-(1-methylcyclopropyl)-1H-pyrazole-5-carboxamide] | 34 | 1 | 1.7 | – | –
13 | COCCN1CC=C(c2ccc3nc(C[C@H](NC(=O)c4cc(C5(C)CC5)nn4C4CC4)C(=O)NC4(C#N)CC4)oc3c2)CC1 [Compound 46, (2S)—N-(1-cyanocyclopropyl)-2-{[2-cyclopropyl-5-(1-methylcyclopropyl)pyrazol-3-yl]formamido}-3-{6-[1-(2-methoxyethyl)-3,6-dihydro-2H-pyridin-4-yl]-1,3-benzoxazol-2-yl}propanamide] | 7 | 0.08 | 1 | – | nearly full protection
14 | CN1CCN(c2ccc3nc(C[C@H](NC(=O)c4cccc(Cl)c4)C(=O)NC4(C#N)CC4)oc3c2)CC1 [Compound 24, (S)-3-chloro-N-(1-((1-cyanocyclopropyl)amino)-3-(6-(4-methylpiperazin-1-yl)benzo[d]oxazol-2-yl)-1-oxopropan-2-yl)benzamide] | 34 | 2 | 9.7 | < 10 | –
15 | CN1CCN(c2ccc3nc(C[C@H](NC(=O)c4cc(C5CC5)nn4C4CC4)C(=O)NCC#N)oc3c2)CC1 [Compound 25, (S)—N-(1-((cyanomethyl)amino)-3-(6-(4-methylpiperazin-1-yl)benzo[d]oxazol-2-yl)-1-oxopropan-2-yl)-1,3-dicyclopropyl-1 H-pyrazole-5-carboxamide] | 54 | 15 | 36.7 | – | –
16 | CN1CCN(c2ccc3nc(C[C@H](NC(=O)c4cccc(Cl)c4)C(=O)NC4(C#N)CC4)oc3c2)C(=O)C1 [Compound 30, (S)-3-chloro-N-(1-((1-cyanocyclopropyl)amino)-3-(6-(4-methyl-2-oxopiperazin-1-yl)benzo[d]oxazol-2-yl)-1-oxopropan-2-yl)benzamide] | 99 | 101 | 124 | – | –
17 | CCNc1ccc(-c2ccc3nc(C[C@H](NC(=O)c4cc(C5(C)CC5)nn4C4CC4)C(=O)NC4(C#N)CC4)oc3c2)cn1 [Compound 43, (S)—N-(1-((1-cyanocyclopropyl)amino)-3-(6-(6-(ethylamino)pyridin-3-yl)benzo[d]oxazol-2-yl)-1-oxopropan-2-yl)-1-cyclopropyl-3-(1-methylcyclopropyl)-1H-pyrazole-5-carboxamide] | 18 | 0.8 | 0.8 | – | –
18 | N#CC1(NC(=O)[C@H](Cc2nc3ccc(C4=CCN(CC(F)F)CC4)cc3o2)NC(=O)c2cccc(Cl)c2)CC1 [Compound 28, (S)-3-chloro-N-(1-((1-cyanocyclopropyl)amino)-3-(6-(1-(2,2-difluoroethyl)-1,2,3,6-tetrahydropyridin-4-yl)benzo[d]oxazol-2-yl)-1-oxopropan-2-yl)benzamide] | 70 | 38 | 12.3 | – | –
19 | CN(C)c1ccc(-c2ccc3nc(C[C@H](NC(=O)c4cc(C5(C)CC5)nn4C4CC4)C(=O)NC4(C#N)CC4)oc3c2)cn1 [Compound 39, (2S)—N-(1-cyanocyclopropyl)-2-{[2-cyclopropyl-5-(1-methylcyclopropyl)pyrazol-3-yl]formamido}-3-{6-[6-(dimethylamino)pyridin-3-yl]-1,3-benzoxazol-2-yl}propanamide] | 32 | 4 | 1.6 | – | –
20 | CC1(c2cc(C(=O)N[C@@H](Cc3nc4ccc(C5=CCN(CC(F)F)CC5)cc4o3)C(=O)NC3(C#N)CC3)n(C3CC3)n2)CC1 [Compound 40, (S)—N-(1-((1-cyanocyclopropyl)amino)-3-(6-(1-(2,2-difluoroethyl)-1,2,3,6-tetrahydropyridin-4-yl)benzo[d]oxazol-2-yl)-1-oxopropan-2-yl)-1-cyclopropyl-3-(1-methylcyclopropyl)-1H-pyrazole-5-carboxamide] | 57 | 12 | 1.5 | – | –
21 | CC(C)(C)c1cc(C(=O)N[C@@H](Cc2nc3ccc(-c4ccc(N)nc4)cc3o2)C(=O)NC2(C#N)CC2)n(C2CC2)n1 [Compound 34, (S)—N-(3-(6-(6-aminopyridin-3-yl)benzo[d]oxazol-2-yl)-1-((1-cyanocyclopropyl)amino)-1-oxopropan-2-yl)-3-(tert-butyl)-1-cyclopropyl-1H-pyrazole-5-carboxamide] | 41 | 0.9 | 0.6 | – | –
